Measured values reported in US20090124587A1, “METHODS FOR TREATING CANCER USING 17alpha-HYDROXYLASE/C17,20-LYASE INHIBITORS” (priority 2007, published 2009).
Where two headings read alike, the source gives them in different places.

Experiment: Food effect PK study, two single oral 1000 mg doses of abiraterone acetate, fed (high fat) vs fasted
Format: in vivo, human
Conditions: for clearance: read-out: Cl F obs (converted); for Vd/F: read-out: Vz F obs; for concentration at 1.017 h: sample time 1.017; for concentration at 6 h: sample time 6.000; for concentration at 2 h: sample time 2.000; for concentration at 4 h: sample time 4.000; for concentration at 8.033 h: sample time 8.033; for concentration at 24 h: sample time 24.000; for concentration at 48.083 h: sample time 48.083
Description: To measure the amount of abiraterone and abiraterone acetate in the samples, these compounds were extracted from 100 uL human plasma using solid phase extraction (SPE) with cation mixed-mode polymer cartridges. Extracts were evaporated to dryness before reconstitution and analysis. Chromatography was carried out using a Luna™ C5 column (5 μm, 50 mm×2.1 mm id) with a gradient mobile phase consisting of 10 mM ammonium acetate and 2% propan-2-ol in acetonitrile. The flow rate was 0.2 mL/min and the run time 10.5 minutes. Abiraterone and abiraterone acetate were ionized using the electrospray interface in positive ion mode. Detection of analytes was via tandem mass spectrometry (MS/MS) in the multiple reaction monitoring (MRM) mode.
PK modeling was conducted using a non-compartmental model, extra vascular input for plasma with WinNonLin Software®. Pharmacokinetic parameters estimated in the model include:
Based on the above results, the PK parameters for a single dose of 1000 mg/day of abiraterone acetate were further studied in the 3 subjects who were administered the 1000 mg/day dose and in 3 additional subjects. Two single oral doses (1000 mg) of abiraterone acetate were administered separately, one concomitantly with food of high fat content and one in fasting state. The first single dose was administered on day −9 with PK blood samples being taken at 1, 2, 4, 6, 8, 24, 48 and 72 hours post dose. The second single dose was administered on day −3 with PK blood samples being taken at 1, 2, 4, 6, 8, 24 and 48 hours post dose for analysis.

[1] = human, plasma, oral, 1000 mg, Patient 19, 1000 mg, Fasted
[2] = human, plasma, oral, 1000 mg, Patient 19, 1000 mg, Fed
[3] = human, plasma, oral, 1000 mg, Patient 19, Fasted
[4] = human, plasma, oral, 1000 mg, Patient 19, Fed
[5] = human, plasma, oral, 1000 mg, Patient 20, 1000 mg, Fasted
[6] = human, plasma, oral, 1000 mg, Patient 20, 1000 mg, Fed
[7] = human, plasma, oral, 1000 mg, Patient 20, Fasted
[8] = human, plasma, oral, 1000 mg, Patient 20, Fed
[9] = human, plasma, oral, 1000 mg, Patient 21, 1000 mg, Fasted
[10] = human, plasma, oral, 1000 mg, Patient 21, 1000 mg, Fed
[11] = human, plasma, oral, 1000 mg, Patient 21, Fasted
[12] = human, plasma, oral, 1000 mg, Patient 21, Fed
[13] = human, plasma, po, 1000 mg, mean, 1000 mg single oral dose, Fasted
[14] = human, plasma, po, 1000 mg, mean, 1000 mg single oral dose, Fed
[15] = mean, 1000 mg single oral dose, Fasted
[16] = mean, 1000 mg single oral dose, Fed

concentration at 4.033 hr (human, plasma, oral, 1000 mg, Patient 15, Fed, sample time 4.033 hr): 484 nM
concentration at 6.083 hr (human, plasma, oral, 1000 mg, Patient 15, Fed, sample time 6.083 hr): 1120 nM
concentration at 8.067 hr (human, plasma, oral, 1000 mg, Patient 15, Fed, sample time 8.067 hr): 512 nM
concentration at 24.05 hr (human, plasma, oral, 1000 mg, Patient 15, Fed, sample time 24.050 hr): 84.3 nM
concentration at 46.05 hr (human, plasma, oral, 1000 mg, Patient 15, Fed, sample time 46.050 hr): 18.1 nM
clearance [1]: 12200 mL/min
Vd/F [1]: 8490 L
clearance [2]: 4900 mL/min
Vd/F [2]: 4250 L
AUC(0-inf) [3]: 3.91 µM·h
AUC(0-t) [3]: 3.8 µM·h
Cmax [3]: 432 nM
Tmax [3]: 6 h
concentration at 1.05 hr (human, plasma, oral, 1000 mg, Patient 19, Fasted, sample time 1.050 hr): 0 nM
concentration at 2.083 hr (human, plasma, oral, 1000 mg, Patient 19, Fasted, sample time 2.083 hr): 71.9 nM
concentration at 4.017 hr (human, plasma, oral, 1000 mg, Patient 19, Fasted, sample time 4.017 hr): 334 nM
concentration at 6 hr (human, plasma, oral, 1000 mg, Patient 19, Fasted, sample time 6.000 hr): 432 nM
concentration at 8.017 hr (human, plasma, oral, 1000 mg, Patient 19, Fasted, sample time 8.017 hr): 177 nM
concentration at 24.067 hr (human, plasma, oral, 1000 mg, Patient 19, Fasted, sample time 24.067 hr): 21.6 nM
concentration at 48.1 hr (human, plasma, oral, 1000 mg, Patient 19, Fasted, sample time 48.100 hr): 9.1 nM
AUC(0-inf) [4]: 9.73 µM·h
AUC(0-t) [4]: 9.47 µM·h
Cmax [4]: 1020 nM
Tmax [4]: 6.13 h
concentration at 0.967 hr (human, plasma, oral, 1000 mg, Patient 19, Fed, sample time 0.967 hr): 0 nM
concentration at 2.2 hr (human, plasma, oral, 1000 mg, Patient 19, Fed, sample time 2.200 hr): 466 nM
concentration at 3.933 hr (human, plasma, oral, 1000 mg, Patient 19, Fed, sample time 3.933 hr): 973 nM
concentration at 6.133 hr (human, plasma, oral, 1000 mg, Patient 19, Fed, sample time 6.133 hr): 1020 nM
concentration at 8 hr (human, plasma, oral, 1000 mg, Patient 19, Fed, sample time 8.000 hr): 344 nM
concentration at 23.717 hr (human, plasma, oral, 1000 mg, Patient 19, Fed, sample time 23.717 hr): 63.6 nM
concentration at 49.3 hr (human, plasma, oral, 1000 mg, Patient 19, Fed, sample time 49.300 hr): 18 nM
clearance [5]: 3680 mL/min
Vd/F [5]: 4880 L
clearance [6]: 2030 mL/min
Vd/F [6]: 3210 L
AUC(0-inf) [7]: 13 µM·h
AUC(0-t) [7]: 12.1 µM·h
Cmax [7]: 1700 nM
Tmax [7]: 2.27 h
concentration at 1.017 h [7]: 58.5 nM
concentration at 2.267 h (human, plasma, oral, 1000 mg, Patient 20, Fasted, sample time 2.267): 1700 nM
concentration at 3.833 h (human, plasma, oral, 1000 mg, Patient 20, Fasted, sample time 3.833): 1270 nM
concentration at 6 h [7]: 976 nM
concentration at 7.917 h (human, plasma, oral, 1000 mg, Patient 20, Fasted, sample time 7.917): 256 nM
concentration at 24.283 h (human, plasma, oral, 1000 mg, Patient 20, Fasted, sample time 24.283): 118 nM
concentration at 48.417 h (human, plasma, oral, 1000 mg, Patient 20, Fasted, sample time 48.417): 40.8 nM
AUC(0-inf) [8]: 23.5 µM·h
AUC(0-t) [8]: 22.8 µM·h
Cmax [8]: 1580 nM
Tmax [8]: 8.03 h
concentration at 1.017 h [8]: 32.2 nM
concentration at 2 h [8]: 201 nM
concentration at 4 h [8]: 422 nM
concentration at 6 h [8]: 1400 nM
concentration at 8.033 h [8]: 1580 nM
concentration at 24 h [8]: 152 nM
concentration at 47.517 h (human, plasma, oral, 1000 mg, Patient 20, Fed, sample time 47.517): 55.4 nM
concentration at 71.333 h (human, plasma, oral, 1000 mg, Patient 20, Fed, sample time 71.333): 25.3 nM
clearance [9]: 6610 mL/min
Vd/F [9]: 7190 L
clearance [10]: 6180 mL/min
Vd/F [10]: 5180 L
AUC(0-inf) [11]: 7.21 µM·h
AUC(0-t) [11]: 6.93 µM·h
Cmax [11]: 648 nM
Tmax [11]: 2.17 h
concentration at 1 h (human, plasma, oral, 1000 mg, Patient 21, Fasted, sample time 1.000): 414 nM
concentration at 2.167 h (human, plasma, oral, 1000 mg, Patient 21, Fasted, sample time 2.167): 648 nM
concentration at 4.15 h (human, plasma, oral, 1000 mg, Patient 21, Fasted, sample time 4.150): 360 nM
concentration at 6.117 h (human, plasma, oral, 1000 mg, Patient 21, Fasted, sample time 6.117): 396 nM
concentration at 8.05 h (human, plasma, oral, 1000 mg, Patient 21, Fasted, sample time 8.050): 231 nM
concentration at 24.333 h (human, plasma, oral, 1000 mg, Patient 21, Fasted, sample time 24.333): 65.5 nM
concentration at 48.083 h [11]: 16.4 nM
concentration at 71.7 h (human, plasma, oral, 1000 mg, Patient 21, Fasted, sample time 71.700): 15.2 nM
AUC(0-inf) [12]: 7.71 µM·h
AUC(0-t) [12]: 7.45 µM·h
Cmax [12]: 1280 nM
Tmax [12]: 6 h
concentration at 1.167 h (human, plasma, oral, 1000 mg, Patient 21, Fed, sample time 1.167): 17.3 nM
concentration at 2 h [12]: 64.3 nM
concentration at 4 h [12]: 102 nM
concentration at 6 h [12]: 1280 nM
concentration at 8.033 h [12]: 372 nM
concentration at 24 h [12]: 49.3 nM
concentration at 48.083 h [12]: 18.9 nM
AUC(0-inf) [13]: 5.32 µM·h
AUC(0-t) [13]: 5.03 µM·h
Cmax [13]: 659 nM
Tmax [13]: 3.09 h
Vd/F [13]: 10100 L
AUC(0-inf) [14]: 12.4 µM·h
AUC(0-t) [14]: 12.1 µM·h
Cmax [14]: 1400 nM
Tmax [14]: 5.21 h
Vd/F [14]: 3800 L
Cl F obs [15]: 861.6 L/h
HL [15]: 9.9 h
Cl F obs [16]: 260.2 L/h
HL [16]: 10.9 h
effect of food on drug levels (patient 21): negligible
difference in mean drug levels between the dosing regimes (fed vs fasted) (previously (before extended cohort)): up to a four fold difference
SMILES: C[C@]12CC[C@H](O)CC1=CC[C@@H]1[C@@H]2CC[C@]2(C)C(c3cccnc3)=CC[C@@H]12 [Abiraterone]
